Assay results as given in patent US20220280594A1, “APPLICATION OF POLYPEPTIDE OR DERIVATIVE THEREOF” (CHENGDU HUITAI BIOMEDICINE CO., LTD., priority 2019, published 2022).
Ends that are not written are not given here. PEG = not defined here

How the values were obtained:
Format in all cases: cell-based
[1] = system: human pancreatic cancer cells (PANC-1); assay: scratch assay, migration of PANC-1 cells; conditions: PANC-1, 10 μM, 48 hours; control group 66.65 ± 3.37
Method in brief: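 PANC-1 monolayers were scratched, then cultured for 48 h with 10 μM test compound in 2% FBS medium, in three parallel wells per group against a PBS control. Migration rate (%) was calculated as (original minus current scratch width) / original width × 100, from imaged wells.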

[2] = system: human thyroid cancer cells (FRO); assay: scratch assay, migration of FRO cells; conditions: 10 μM, 48 hours, control group 60.34 ± 8.32
Method in brief: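 FRO monolayers were scratched, washed, and cultured 48 h in 2% FBS medium with polypeptide derivatives at 10 μM or PBS control, three wells per group. Migration rate (%) = (original − current scratch width)/original width × 100, measured from images.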

[3] = system: human pancreatic cancer cells (PANC-1); assay: transwell migration assay, PANC-1 cells; conditions: PANC-1 transwell migration, 10 μM, 24 hours; control group 360 ± 60
Method in brief: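 Serum-free PANC-1 cells placed in the upper transwell chamber with complete medium below; after 4-5 h, peptide added to the upper chamber at a final 10 μM. Migration ran 24 h at 37 °C; cells on the membrane underside were methanol-fixed, crystal violet-stained and counted by microscopy.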

[4] = system: human non-small cell lung cancer cells (A549); assay: scratch assay, migration of A549 cells; conditions: A549, 10 μM, 48 hours; control group 75.31 ± 8.19
Method in brief: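 Confluent A549 monolayers in 24-well plates were scratched, washed with PBS, then cultured 48 h in 2% FBS medium with peptide at 10 μM or PBS control, triplicate wells. Scratch width measured from images; migration rate (%) = (original − current width)/original width × 100.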

[5] = system: human pharyngeal squamous-cell carcinoma cells (Fadu); assay: scratch assay, migration of Fadu cells; conditions: 10 μM, 48 hours, control group 28.76 ± 4.08
Method in brief: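 Confluent Fadu monolayers scratched, then cultured 48 h with 10 μM polypeptide in medium with 2% FBS; PBS control, triplicate wells. Migration rate (%) = (original − current scratch width)/original width × 100, from ≥3 images per well.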

[6] = system: human liver adenocarcinoma cells (SK-HEP-1); assay: transwell migration assay, SK-HEP-1 cells; conditions: SK-HEP-1 transwell migration, 10 μM, 24 hours; control group 1 782 ± 108, control group 2 768 ± 86
Method in brief: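 SK-HEP-1 cells in serum-free medium seeded in upper transwell chamber (2-3×10^5 cells/mL) over complete medium; after 4-5 h at 37 °C, 5% CO2, peptide added at 10 μM final in upper chamber. After 24 h, migrated cells fixed in methanol, crystal-violet stained, imaged and counted.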

[7] = system: human prostate cancer cells (22RV1); assay: scratch assay, migration of 22RV1 cells; conditions: 22RV1, 10 μM, 48 hours; control group 25.41 ± 5.01
Method in brief: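 22RV1 monolayers (seeded 1-2×10^5 cells/well) were scratched, washed, then given 2% FBS medium with 10 μM polypeptide or PBS, triplicate wells, for 48 h. Migration rate (%) = (original − current scratch width)/original width ×100, from ≥3 images per well.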

[8] = system: human colon cancer cells (HCT-116); assay: scratch assay, migration of HCT-116 cells; conditions: HCT-116, 10 μM, 48 hours; control group 47.78 ± 6.07
Method in brief: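 Confluent HCT-116 monolayers were scratched, washed and cultured 48 h in 2% FBS medium with peptide at 10 μM versus PBS control, triplicate wells. Migration rate (%) = (original minus current scratch width)/original width × 100, from at least 3 images per well.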

[9] = system: human lung squamous carcinoma cells (NCI-H226); assay: scratch assay, migration of NCI-H226 cells; conditions: NCI-H226, 10 μM, 48 hours; control group 65.31 ± 3.19
Method in brief: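 A straight scratch was made in confluent NCI-H226 monolayers (1-2×10^5 cells/well). Cells were then kept 48 h in 2% FBS medium with 10 μM polypeptide or PBS control, triplicate wells. Migration rate (%) = (original − current scratch width)/original width ×100, from imaged scratch widths.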

[10] = system: human lung cancer cells (95D); assay: scratch assay, migration of 95D cells; conditions: 10 μM, 48 hours, control group 55.3 ± 3.19
Method in brief: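 Confluent 95D monolayers were scratched, washed with PBS and cultured 48 h in 2% FBS medium containing peptide (10 μM) or PBS control, in triplicate wells. Scratch width was measured on images; migration rate (%) = (original width − current width)/original width × 100.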

[11] = system: human breast cancer cells (MDA-MB-231); assay: scratch assay, migration of MDA-MB-231 cells; conditions: MDA-MB-231, 10 μM, 48 hours; control group 36.19 ± 5.15
Method in brief: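 MDA-MB-231 monolayers (1-2×10^5 cells/well) were scratched, then kept 48 h in medium with 2% FBS containing polypeptide at 10 μM, with a PBS control, in triplicate wells. Migration rate (%) was taken from scratch width: (original − current)/original ×100.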

Substance: N41: SEQ ID NO: 1 with addition of two amino acids at the amino terminal, deletion of position 18, PEG at the carboxyl terminal (FRYRVRFLAKENVTQDAED-{PEG}; reading uncertain)
- Migration rate (%) (mean ± SD, P) [1]: 14.44 ± 7.40,*** %
- Migration rate (%) (mean ± SD, P) [2]: 40.10 ± 2.73,* %
- Number of cells (mean ± SD, P), migrated cells [3]: 248 ± 22,*
- Migration rate (%) (mean ± SD, P) [4]: 56.03 ± 3.75,* %
- Migration rate (%) (mean ± SD, P) [5]: 12.00 ± 4.73,** %
- Number of cells (mean ± SD, P), migrated cells [6]: 280 ± 24,****
- Migration rate (%) (mean ± SD, P) [7]: 7.83 ± 1.84,** %
- Migration rate (%) (mean ± SD, P) [8]: 5.78 ± 2.76,*** %
- Migration rate (%) (mean ± SD, P) [9]: 15.30 ± 8.69,*** %
- Migration rate (%) (mean ± SD, P) [10]: 32.62 ± 3.79,** %
- Migration rate (%) (mean ± SD, P) [11]: 14.75 ± 4.28,** %

Substance: N42: SEQ ID NO: 1 with deletion of positions 1-5 and 15-18, PEG at the amino terminal, one amino acid added at the carboxyl terminal ({PEG}-LAKENVTQDR; reading uncertain)
- Migration rate (%) (mean ± SD, P) [1]: 24.26 ± 7.91,** %
- Migration rate (%) (mean ± SD, P) [2]: 25.71 ± 2.79,** %
- Number of cells (mean ± SD, P), migrated cells [3]: 236 ± 14,**
- Migration rate (%) (mean ± SD, P) [4]: 60.74 ± 3.40,* %
- Migration rate (%) (mean ± SD, P) [5]: 18.63 ± 2.79,* %
- Number of cells (mean ± SD, P), migrated cells [6]: 106 ± 17,****
- Migration rate (%) (mean ± SD, P) [7]: 5.89 ± 1.02,** %
- Migration rate (%) (mean ± SD, P) [8]: 6.75 ± 2.33,*** %
- Migration rate (%) (mean ± SD, P) [9]: 17.46 ± 6.33,*** %
- Migration rate (%) (mean ± SD, P) [10]: 35.42 ± 4.97,** %
- Migration rate (%) (mean ± SD, P) [11]: 17.91 ± 3.66,** %

Substance: N43: SEQ ID NO: 1 with addition of one amino acid at the amino terminal, deletion of position 18, PEG at the carboxyl terminal (RYRVRFLAKENVTQDAED-{PEG}; reading uncertain)
- Migration rate (%) (mean ± SD, P) [1]: 18.87 ± 6.90,*** %
- Migration rate (%) (mean ± SD, P) [2]: 19.78 ± 4.60,** %
- Number of cells (mean ± SD, P), migrated cells [3]: 157 ± 15,***
- Migration rate (%) (mean ± SD, P) [4]: 57.74 ± 5.39,* %
- Migration rate (%) (mean ± SD, P) [5]: 10.04 ± 2.50,** %
- Number of cells (mean ± SD, P), migrated cells [6]: 157 ± 29,****
- Migration rate (%) (mean ± SD, P) [7]: 6.57 ± 1.35,** %
- Migration rate (%) (mean ± SD, P) [8]: 4.56 ± 1.52,*** %
- Migration rate (%) (mean ± SD, P) [9]: 16.38 ± 7.71,*** %
- Migration rate (%) (mean ± SD, P) [10]: 30.38 ± 4.71,** %
- Migration rate (%) (mean ± SD, P) [11]: 12.19 ± 5.70,** %

Substance: N45: SEQ ID NO: 1 with V11R, deletion of positions 1-5 and 15-18, PEG modification at the carboxyl terminal (LAKENRTQD-{PEG}; reading uncertain)
- Migration rate (%) (mean ± SD, P) [1]: 45.16 ± 5.74,** %
- Migration rate (%) (mean ± SD, P) [2]: 24.22 ± 6.27,** %
- Number of cells (mean ± SD, P), migrated cells [3]: 135 ± 10,***
- Migration rate (%) (mean ± SD, P) [4]: 56.03 ± 4.21,* %
- Migration rate (%) (mean ± SD, P) [5]: 9.34 ± 2.86,*** %
- Number of cells (mean ± SD, P), migrated cells [6]: 162 ± 15,****
- Migration rate (%) (mean ± SD, P) [7]: 11.63 ± 2.82,* %
- Migration rate (%) (mean ± SD, P) [8]: 28.34 ± 2.87,** %
- Migration rate (%) (mean ± SD, P) [9]: 23.76 ± 5.38,*** %
- Migration rate (%) (mean ± SD, P) [10]: 33.76 ± 5.38,** %
- Migration rate (%) (mean ± SD, P) [11]: 13.02 ± 4.54,** %

Substance: N47: SEQ ID NO: 1 with N18R, deletion of positions 1-2, one amino acid added and PEG at the carboxyl terminal (VRFLAKENVTQDAEDRC-{PEG}; reading uncertain)
- Migration rate (%) (mean ± SD, P) [1]: 36.05 ± 5.62,** %
- Migration rate (%) (mean ± SD, P) [2]: 16.47 ± 3.83,** %
- Number of cells (mean ± SD, P), migrated cells [3]: 135 ± 10,***
- Migration rate (%) (mean ± SD, P) [4]: 54.66 ± 4.73,* %
- Migration rate (%) (mean ± SD, P) [5]: 10.27 ± 4.61,*** %
- Number of cells (mean ± SD, P), migrated cells [6]: 179 ± 17,****
- Migration rate (%) (mean ± SD, P) [7]: 5.92 ± 2.53,** %
- Migration rate (%) (mean ± SD, P) [8]: 18.92 ± 2.11,** %
- Migration rate (%) (mean ± SD, P) [9]: 53.86 ± 3.61,* %
- Migration rate (%) (mean ± SD, P) [10]: 23.86 ± 3.61,*** %
- Migration rate (%) (mean ± SD, P) [11]: 21.82 ± 4.11,* %

Substance: N48: SEQ ID NO: 1 with A7R, deletion of position 11 and position 18, PEG modification at the carboxyl terminal (YRVRFLRKENTQDAED-{PEG}; reading uncertain)
- Migration rate (%) (mean ± SD, P) [1]: 20.60 ± 4.71,*** %
- Migration rate (%) (mean ± SD, P) [2]: 13.78 ± 2.61,*** %
- Number of cells (mean ± SD, P), migrated cells [3]: 152 ± 18,***
- Migration rate (%) (mean ± SD, P) [4]: 22.04 ± 3.01,*** %
- Migration rate (%) (mean ± SD, P) [5]: 8.78 ± 4.34,*** %
- Number of cells (mean ± SD, P), migrated cells [6]: 374 ± 22,***
- Migration rate (%) (mean ± SD, P) [7]: 5.61 ± 3.14,** %
- Migration rate (%) (mean ± SD, P) [8]: 18.03 ± 4.62,** %
- Migration rate (%) (mean ± SD, P) [9]: 25.07 ± 4.31,*** %
- Migration rate (%) (mean ± SD, P) [10]: 25.07 ± 6.31,** %
- Migration rate (%) (mean ± SD, P) [11]: 13.06 ± 3.2,** %

Substance: N49: SEQ ID NO: 1 with A7R, deletion of positions 1-2 and position 18, PEG modification at the carboxyl terminal (VRFLRKENVTQDAED-{PEG}; reading uncertain)
- Migration rate (%) (mean ± SD, P) [1]: 17.71 ± 7.65,*** %
- Migration rate (%) (mean ± SD, P) [2]: 15.77 ± 2.99,** %
- Number of cells (mean ± SD, P), migrated cells [3]: 137 ± 29,***
- Migration rate (%) (mean ± SD, P) [4]: 27.20 ± 6.23,** %
- Migration rate (%) (mean ± SD, P) [5]: 6.29 ± 2.62,*** %
- Number of cells (mean ± SD, P), migrated cells [6]: 137 ± 11,****
- Migration rate (%) (mean ± SD, P) [7]: 6.18 ± 1.89,** %
- Migration rate (%) (mean ± SD, P) [8]: 18.84 ± 2.99,** %
- Migration rate (%) (mean ± SD, P) [9]: 38.90 ± 5.49,** %
- Migration rate (%) (mean ± SD, P) [10]: 29.37 ± 3.62,** %
- Migration rate (%) (mean ± SD, P) [11]: 13.41 ± 3.12,** %
